Laboratory results as given in US20220088195A1, “Prevention or mitigation of T-cell bispecific antibody-related adverse effects” (Hoffmann-La Roche Inc., priority 2020, published 2022).
Entries after “also recorded” stand apart in the source; their conditions may differ.

Assays:
Assay type in all cases: cell-based, human
SKM-1 tumor cells = assay: Two-stimulation (ON/OFF) killing assay, PBMCs + CFSE/CTV labelled SKM-1 cells + HLA-A2 WT-1-TCB, FACS
Method: FIG. 8. In vitro killing assay set-up and timelines. PBMCs were co-cultured with carboxyfluorescein succinimidyl ester (CFSE) labelled SKM-1 target cells (E:T=5:1) and 10 nM HLA-A2 WT-1-TCB for 20h. Activated PBMCs were washed and restimulated on fresh, CTV labelled SKM-1 target cells (E:T=5:1) and 10 nM HLA-A2 WT-1-TCB in the presence or absence of 100 nM dasatinib.
FIG. 10. SKM-1 target cell viability upon first stimulation with 10 nM HLA-A2 WT-1-TCB in the absence of dasatinib (left) and upon second stimulation with 10 nM HLA-A2 WT-1-TCB in the presence of 100 nM dasatinib (right). Target cell viability was measured by FACS after 44h in the assay of FIG. 8. Dead CFSE labelled SKM-1 cells were gated on positive near infrared (NIR) cells (left side). Dead CTV labelled SKM-1 cells were gated on positive NIR cells (right side).
FIG. 11. HLA-A2 WT-1-TCB dose response for dead CFSE and CTV SKM-1 cells used for first and second stimulation in the presence and absence of dasatinib in the assay of FIG. 8. Mean+/−SEM of 3 donors, two-tailed paired t test (for each concentration), 2 tailed p values: 0.1234 (ns), 0.0332 (*), 0.0021 (**), 0.0002 (***), <0.0001 (****).
To assess whether dasatinib can efficiently prevent TCB-mediated target cell killing by activated T cells, we set up an in vitro killing assay with two stimulation steps, mimicking an ON/OFF switch. […]

CD4+ and CD8+ T cells = assay: T cell degranulation, CD107a staining by FACS at 24h, SKM-1 + HLA-A2 WT-1-TCB
Method: FIG. 13. In vitro killing assay set-up and timelines to assess T cell degranulation. PBMCs were co-cultured with SKM-1 target cells (E:T=5:1) and 10 nM HLA-A2 WT-1-TCB in the presence and absence of 100 nM dasatinib. Golgistop and Golgiplug (both BD) and CD107a antibody were added 3 hours after activation with TCB to prevent cytokine externalization.
FIG. 14. CD107a+ populations among CD4+ and CD8+ T cells in the presence and absence of dasatinib for one representative donor, in the assay of FIG. 13. Expression of CD107a on CD4+ and CD8+ T cells was measured by FACS at 24h.
FIG. 15. Percentages of CD107a+ cells among CD4+ (A) and CD8+ (B) T cells in the presence and absence of dasatinib in the assay of FIG. 13. Expression of CD107a on CD4+ and CD8+ T cells was measured by FACS at 24h. Mean of 3 donors+/−SD.
To assess whether dasatinib can efficiently prevent TCB-mediated target cell killing by activated T cells, we set up an in vitro killing assay with two stimulation steps, mimicking an ON/OFF switch. During the first stimulation, PBMCs were activated on carboxyfluorescein succinimidyl ester (CFSE)-labelled SKM-1 tumors cells with HLA-A2 WT-1-TCB in the absence of dasatinib (ON). During the second stimulation, activated PBMCs together with dead CFSE labelled SKM-1 tumors cells were washed and re-stimulated by HLA-A2 WT-1-TCB on fresh CTV labelled SKM-1 tumor cells in the presence of 100 nM dasatinib (OFF). The use of CFSE and CTV labelled SKM-1 tumors allowed to differentiate tumor cells used for first and second stimulation by flow cytometry (FIG. 8). […] Consistently, T cells were activated and functional before the addition of dasatinib in the system. 87.6% of CTV labelled SKM-1 cells were alive upon second stimulation with 10 nM HLA-A2 WT-1 TCB in the presence of 100 nM dasatinib, but only 2.04% of CTV labelled SKM-1 tumor cells were alive upon restimulation with 10 nM HLA-A2 WT-1-TCB in the absence of dasatinib (FIG. 10). […]

[1] = test system: IL-2, IFN-γ, TNF-α, IL-6, GM-CSF and IL-8 release; assay: CD19-TCB-induced cytokine release in the SUDLH-8 assay (Luminex); conditions: 100 nM dasatinib, monohydrate
Method: The levels of IL-2 (A), IFN-γ (B), TNF-α (C), IL-6 (D), GM-CSF (E) and IL-8 (F) were measured by Luminex in the supernatant of the assay described in FIG. 26.
FIG. 31. […] The levels of IFN-γ (A), TNF-α (B), IL-2 (C), IL-6 (D), GM-CSF (E) and IL-8 (F) were measured by Luminex in the supernatant of the assay described in FIG. 26.
The killing of CTV labelled SUDLH-8 cells was measured by flow cytometry using a Live/Dead Near Infra Red (NIR) dye. […] The expression of CD69 and CD25 were measured on CD4+ (FIG. 28) and CD8+(FIG. 29) T cells by flow cytometry as a readout for T cell activation. […] Lastly, the cytokine levels were analyzed in the supernatants of the assay by Luminex to evaluate the effect of dasatinib on CD19-TCB-induced cytokine release (FIGS. 30 and 31).

[2] = 10 nM HLA-A2 WT-1-TCB + 100 nM dasatinib, 24h, one representative donor

Cc1nc(Nc2ncc(C(=O)Nc3c(C)cccc3Cl)s2)cc(N2CCN(CCO)CC2)n1 [dasatinib, N-(2-chloro-6-methylphenyl)-2-[[6-[4-(2-hydroxyethyl)-1-piperazinyl]-2-methyl-4-pyrimidinyl]amino]-5-thiazole carboxamide monohydrate]
CTV labelled SKM-1 cells alive upon second stimulation (SKM-1 tumor cells; 10 nM HLA-A2 WT-1 TCB in the presence of 100 nM dasatinib): 87.6% | killing of CTV labelled SKM-1 cells (ON/OFF versus ON/ON) (SKM-1 tumor cells; 100 nM dasatinib upon re-stimulation): effectively prevented the killing | cells positive for CD107a among CD4+ T cells (CD4+ and CD8+ T cells; [2]): 1.22% | cells positive for CD107a among CD8+ T cells (CD4+ and CD8+ T cells; [2]): 2.08% | TCB-induced CD107a expression on CD4+ and CD8+ T cells (CD4+ and CD8+ T cells; 100 nM dasatinib, 3 donors): prevented | release of IL-2, IFN-γ, TNF-α, IL-6, GM-CSF and IL-8 [1]: prevents CD19-TCB-induced cytokine release; also recorded: prevented the release
